Experimental data as given in patent publication US20250250647A1, “STABLE CELL CLONES HARBORING REPLICATING SARS-COV-2 RNA” (priority 2021, published 2025).

System: SARS-CoV-2-Rep-NanoLuc-Neo-Nsp1^K164A/H165A replicon
Assay type: cell-based
Settings: read-out: IC50, mean over stable replicon clones

CC(C)C[C@H](NC(=O)OCc1ccccc1)C(=O)N[C@@H](CC1CCNC1=O)C(O)S(=O)(=O)O (stereo partly shown) [GC376]
IC50: 9.3 µM
